Reference: US20160326098A1, “Pharmaceutically Active Compound for Use as Anti-inflammatory Agent” (Pax Forschung GmbH, priority 2013, published 2016)

Legend:
Format in all cases: in vivo
[1] = tested on: TNF-α; test: Plasma TNF-α level, rats with gastric injury without inflammation; details: one day after 1.11 mmol/kg, vs control group H, FIG. 21
Protocol: Plasma TNF-α concentrations were determined in duplicate by means of a commercially available enzyme-linked immunosorbent assay (Quantikine ultrasensitive enzyme-linked immunosorbent assay kit for rat TNF-α; Biomedica Hungaria Kft, Budapest, Hungary). The minimum detectable level was less than 5 pg/ml, and the inter-assay and intra-assay coefficients of variation were less than 10%.
Further experiments regarding the effect of a compound of formula (I) and a pharmaceutical composition comprising a compound of formula (I), respectively, on gastric injury without inflammation were conducted on rats. 15 animals were randomly allocated into three groups. Group H (n=5) served as sham-operated controls. Samples of all animals were drawn on day 1 of the clinical tests. On day 2 the animals of group I (n=5) were force-fed acetylsalicylic acid (ASS) (1.11 mmol/kg body weight). Group K (n=5) was force-fed 1.11 mmol/kg body weight of the compound according to the invention. […] Fluorescence confocal endomicroscopy was performed to examine the microvasculature and morphologic changes of the mucosa of the distal colon, and full-thickness tissue samples and venous blood samples were taken to determine the biochemical changes in the colon and plasma. The effects were determined by way of measurement of body weight, blood gas analysation and biopsy. […]

[2] = Body weight, rats with TNBS-induced colitis; details: two days after enema, one day after 1.11 mmol/kg, FIG. 27
Protocol: (§1) Colonic inflammation was induced by intracolonic administration of TNBS (2,4,6-trinitrobenzenesulfonic acid) (40 mg/kg in 0.25 ml of 25% aqueous ethanol) through an 8-cm-long soft plastic catheter under transient diethylether anesthesia. In the sham-operated groups, only the vehicle for TNBS was administered. The animals were deprived of food, but not water, for 12 h before the enemas.
(§2) The above-described clinical studies were repeated with animals having colitis which was induced as described above. […] Two days after the enema the effects of the treatment were determined by measurement of body weight, blood gas analysis and biopsy. […] Surgery was performed to allow registration of the hemodynamic parameters at 1 h intervals for 6 h (cardiac output [CO] data were measured only at the end of the experiments). […] In addition, fluorescence confocal endomicroscopy was performed to examine the microvasculature and morphologic changes of the mucosa of the distal colon, and full-thickness tissue samples and venous blood samples were taken to determine the biochemical changes in the colon and plasma.

[3] = tested on: xanthine oxidase enzyme; test: Xanthine oxidase enzyme activity in tissue, mice with TNBS-induced colitis; details: gastric and colon tissue, 1.11 mmol/kg, FIGS. 14a/14b
Protocol: as §1
(§3) The XOR activity was determined in the ultrafiltered, concentrated supernatant by fluorometric kinetic assay based on the conversion of pterine to isoxanthopterine in the presence (total XOR) or absence (xanthine oxidase activity) of the electron acceptor methylene blue.
as §2

[4] = Body weight, mice with gastric injury without inflammation; details: 1.11 mmol/kg force-fed, one day after gavage, FIG. 2
Protocol: First experiments regarding the effect of the compound of formula (I) and a pharmaceutical composition comprising the compound of formula (I) (clear aqueous solution of compound of formula (I) at pH 4.8), respectively, on gastric injury without inflammation were conducted on mice. 48 animals were randomly allocated into three groups. Group A (n=16) served as sham-operated controls. Samples of all animals were drawn on day 1 of the clinical tests. On day 2 the animals of group B (n=16) were force-fed acetylsalicylic acid (ASS) (1.11 mmol/kg body weight). Group C (n=16) was force-fed 1.11 mmol/kg body weight of the compound according to the invention. Group A only received the respective solvent (25% ethanol in water). One day after the gavage, additional samples were drawn. Fluorescence confocal endomicroscopy was performed to examine the microvasculature and morphologic changes of the mucosa of the distal colon, and full-thickness tissue samples and venous blood samples were taken to determine the biochemical changes in the colon and plasma. The effects were determined by way of measurement of body weight, blood gas analysation and biopsy. ASS was chosen as a comparative example due to its structural similarity and its known activity as anti-inflammatory agent.

[5] = Haematocrit in blood, rats with gastric injury without inflammation; details: 1.11 mmol/kg; for percentage of haematocrit in the blood / haematocrit level, low haematocrit data group (severe bleeding with plasma and cell loss): vs control group H; for percentage of haematocrit in the blood: FIG. 18; for haematocrit level, low haematocrit data group (severe bleeding with plasma and cell loss): FIG. 20; for haematocrit level, high haematocrit data group (bleeding with plasma loss): vs sham group H, FIG. 19
Protocol: The medicinal activity of the compound according to the invention and the pharmaceutical composition according to the invention was tested in a series of experiments performed on rats. The experiments were performed on male Sprague-Dawley rats (280-320 g) housed in plastic cages in a thermoneutral environment (21° C.±2° C.) with a 12 h dark-light cycle. The animals, fed on a normal diet with tap water ad libitum, were randomly allocated into experimental groups according to the feeding protocols.
(§4) Further experiments regarding the effect of a compound of formula (I) and a pharmaceutical composition comprising a compound of formula (I), respectively, on gastric injury without inflammation were conducted on rats. 15 animals were randomly allocated into three groups. Group H (n=5) served as sham-operated controls. Samples of all animals were drawn on day 1 of the clinical tests. On day 2 the animals of group I (n=5) were force-fed acetylsalicylic acid (ASS) (1.11 mmol/kg body weight). Group K (n=5) was force-fed 1.11 mmol/kg body weight of the compound according to the invention. Group H only received the respective solvent (25% ethanol in water). One day after the gavage, additional samples were drawn. Fluorescence confocal endomicroscopy was performed to examine the microvasculature and morphologic changes of the mucosa of the distal colon, and full-thickness tissue samples and venous blood samples were taken to determine the biochemical changes in the colon and plasma. The effects were determined by way of measurement of body weight, blood gas analysation and biopsy. ASS was chosen as a comparative example due to its structural similarity and its known activity as anti-inflammatory agent.
On the basis of the haematocrit measurements, the data can be divided into two groups:
a) high haematocrit level, indicating bleeding with plasma loss (FIG. 19); and b) low haematocrit level, indicating severe bleeding with plasma and cell loss (FIG. 20).

[6] = tested on: xanthine oxidase enzyme; test: Xanthine oxidase enzyme activity in tissue, rats with gastric injury without inflammation; details: gastric and colon tissue, 1.11 mmol/kg, vs control group H, FIGS. 24a/24b
Protocol: as §3
as §4, with “ASS was chosen as a comparative example due to its structural similarity and its known activity as anti-inflammatory agent.” left out

Row | Structure (SMILES) | plasma TNF-α level [1] | loss of body weight [2] | activity of xanthine oxidase enzyme [3] | change in body weight [4] | percentage of haematocrit in the blood [5] | haematocrit level, low haematocrit data group (severe bleeding with plasma and cell loss) [5] | haematocrit level, high haematocrit data group (bleeding with plasma loss) [5] | activity of xanthine oxidase enzyme [6]
1 | CC(=O)Oc1ccccc1C(=O)O [ASS, acetylsalicylic acid, reference compound] | increase in the plasma TNF-α level | severe loss in body weight | only a slight decrease in activity | severe loss of body weight | severe change in the haematocrit level | severe drop | increase of the haematocrit level | increased activity
2 | CC(=O)Oc1ccccc1C(=O)NC(CO)(CO)CO [compound according to the invention] | almost no change | No weight loss | enzyme activity comparable to that of healthy animals | only showed a minor loss in body weight | No change in the haematocrit level | no changes could be detected | no change in the haematocrit level | no such increase
